Assay results: US8802713B2, “3-alkoxy-1-phenylpyrazole derivatives and pesticides” (Kumiai Chemical Industry Co., Ltd., priority 2007, dated 2014)
Where two headings read alike, the source gives them in different places.

Assays:
diamondback moth = test: Insecticidal test on diamondback moth; format: in vivo; conditions: Plutella xylostella, 144 h
Protocol: A wettable powder prepared in accordance with Formulation Example 2 was diluted with water to a concentration of an active ingredient of 500 ppm. Cabbage leaves were dipped in this solution and dried in air and then put in a plastic cup having a capacity of 60 mL. 10 second-instar larvae of diamondback moth were released in the cup and the cup was lidded. Then, the cup was placed in a thermostatic chamber at 25° C. for 6 days, and dead moths were counted for calculation of the mortality by Equation 2. The test was carried out by one series system.

cotton bollworm = test: Insecticidal test on cotton bollworm; format: in vivo; conditions: Helicoverpa armigera, 144 h
Protocol: A wettable powder prepared in accordance with Formulation Example 2 was diluted with water to a concentration of an active ingredient of 500 ppm. Cabbage leaves were dipped in this solution and dried in air and then put in a plastic cup having a capacity of 60 mL. Five hatched larvae of cotton bollworm were released in the cup, and the cup was lidded and placed in a thermostatic chamber at 25° C. for 6 days, and the number of dead larvae were assessed for calculation of the mortality by Equation 2. The test was carried out by two series system.

two-spotted spider mites = test: Miticidal test on two-spotted spider mites (seedling dip); format: in vivo, Tetranvchus urticae; conditions: Glycine max, 312 h, read-out: protective value
Protocol: A wettable powder prepared in accordance with Formulation Example 2 was diluted with water to a concentration of an active ingredient of 500 ppm. Soybean seedlings which had been inoculated with imago two-spotted spider mites were dipped in the solution and dried in air. The treated soybean seedlings were placed in a thermostatic chamber at 25° C. for 13 days, and the number of live mites were assessed for calculation of the protective value by Equation 1. The test was carried out by one series system.

brown rice planthopper = test: Insecticidal test on brown rice planthopper; format: in vivo; conditions: 144 h
Protocol: A wettable powder prepared in accordance with Formulation Example 2 was diluted with water to a concentration of an active ingredient of 500 ppm. Rice sprouts were dipped in this solution and put in a plastic cup having a capacity of 60 mL. Ten third-instar larvae of brown rice planthopper were released in the cup, the cup was lidded and placed in a thermostatic chamber at 25° C. for 6 days, and the number of dead larvae were counted for calculation of the mortality by Equation 2. The test was carried out by one series system.

cotton aphid = test: Insecticidal test on cotton aphid (seedling dip); format: in vivo; conditions: Aphis gossypii, in Cucumis sativus, 72 h
Protocol: A wettable powder prepared in accordance with Formulation Example 2 was diluted with water to a concentration of an active ingredient of 500 ppm. Cucumber seedlings which had been inoculated with larvae of cotton aphid were dipped in this solution and dried in air. The treated cucumber seedlings were placed in a thermostatic chamber at 25° C. for 3 days, and the live insects were counted for calculation of the mortality by Equation 2. The test was carried out by one series system.

[1] = 500 ppm active ingredient, soybean seedlings with imago mites dipped, 25° C., 13 days
[2] = 500 ppm active ingredient, cabbage leaves dipped, second-instar larvae, 25° C., 6 days, read-out: mortality
[3] = 500 ppm active ingredient, cabbage leaves dipped, hatched larvae, 25° C., 6 days, read-out: mortality

CC(=O)Nc1cc(OCC(F)(F)OC(F)(F)C(F)(F)OC(F)(F)F)nn1-c1cc([S+]([O-])CC(F)(F)F)c(C)cc1F (stereo not shown) [1-375, 5-acetylamino-3-[2,2-difluoro-2-{2-trifluoromethoxy-(1,1,2,2-tetrafluoroethoxy)}ethoxy]-1-{2-fluoro-4-methyl-5-(2,2,2-trifluoroethylsulfinyl)phenyl}pyrazole]
≥ 90%: mortality at 500 ppm (diamondback moth; in Brassica oleracea) | mortality at 500 ppm (cotton bollworm; in Brassica oleracea) | pest or weed control at 500 ppm (two-spotted spider mites; [1])

CC(=O)Nc1cc(OCC(F)(F)C(F)(F)F)nn1-c1cc([S+]([O-])CC(F)(F)Cl)c(C)cc1F (stereo not shown) [1-178, 5-acetylamino-1-{2-fluoro-4-methyl-5-(2-chloro-2,2-difluoroethylsulfinyl)phenyl}-3-(2,2,3,3,3-pentafluoropropoxy)pyrazole]
≥ 90%: mortality at 500 ppm (brown rice planthopper) | mortality at 500 ppm (diamondback moth; [2]) | mortality at 500 ppm (cotton bollworm; [3])

CC(=O)Nc1cc(OC(F)(F)C(F)(F)C(F)(F)F)nn1-c1cc([S+]([O-])CC(F)(F)F)c(C)cc1F (stereo not shown) [1-268, 5-acetylamino-1-{2-fluoro-4-methyl-5-(2,2,2-trifluoroethylsulfinyl)phenyl}-3-(1,1,2,2,3,3,3-heptafluoropropoxy)pyrazole]
≥ 90%: mortality at 500 ppm (diamondback moth; [2]) | mortality at 500 ppm (cotton bollworm; [3]) | pest or weed control at 500 ppm (two-spotted spider mites)

CC(=O)Nc1cc(OC(F)(F)C(F)OC(F)(F)C(F)(F)C(F)(F)F)nn1-c1cc([S+]([O-])CC(F)(F)F)c(C)cc1F (stereo not shown) [1-371, 5-acetylamino-1-{2-fluoro-4-methyl-5-(2,2,2-trifluoroethylsulfinyl)phenyl}-3-{1,1,2-trifluoro-2-(heptafluoropropoxy)ethoxy}pyrazole]
≥ 90%: mortality at 500 ppm (diamondback moth; [2]) | mortality at 500 ppm (cotton bollworm; [3]) | pest or weed control at 500 ppm (two-spotted spider mites)

Cc1cc(F)c(-n2nc(OC(F)(F)C(F)OC(F)(F)F)cc2C#N)cc1SCC(F)(F)F (stereo not shown) [1-668, 5-cyano-1-{2-fluoro-4-methyl-5-(2,2,2-trifluoroethylthio)phenyl}-3-{1,1,2-trifluoro-2-(trifluoromethoxy)ethoxy}pyrazole]
≥ 90%: mortality at 500 ppm (brown rice planthopper) | mortality at 500 ppm (diamondback moth; in Brassica oleracea) | pest or weed control at 500 ppm (two-spotted spider mites; [1]) | mortality at 500 ppm (cotton aphid)

CNc1cc(OC(F)(F)C(F)(F)C(F)(F)C(F)(F)C(F)(F)F)nn1-c1cc(SCC(F)(F)F)c(C)cc1F [1-524, 1-{2-fluoro-4-methyl-5-(2,2,2-trifluoroethylthio)phenyl}-5-methylamino-3-(1,1,2,2,3,3,4,4,5,5,5-undecafluoropentyloxy)pyrazole]
≥ 90%: mortality at 500 ppm (brown rice planthopper) | mortality at 500 ppm (diamondback moth; [2]) | mortality at 500 ppm (cotton bollworm; [3]) | pest or weed control at 500 ppm (two-spotted spider mites)

Cc1cc(F)c(-n2nc(OCC(F)(F)C(F)(F)F)cc2C)cc1SCC(F)(F)F [1-91, 1-{2-fluoro-4-methyl-5-(2,2,2-trifluoroethylthio)phenyl}-5-methyl-3-(2,2,3,3,3-pentafluoropropoxy)pyrazole]
≥ 90%: mortality at 500 ppm (brown rice planthopper) | mortality at 500 ppm (diamondback moth; in Brassica oleracea) | pest or weed control at 500 ppm (two-spotted spider mites; [1]) | mortality at 500 ppm (cotton aphid)

COc1cc(OC(F)(F)C(F)OC(F)(F)F)nn1-c1cc(SCC(F)(F)F)c(C)cc1F (stereo not shown) [1-794, 1-{2-fluoro-4-methyl-5-(2,2,2-trifluoroethylthio)phenyl}-5-methoxy-3-{1,1,2-trifluoro-2-(trifluoromethoxy)ethoxy}pyrazole]
≥ 90%: mortality at 500 ppm (brown rice planthopper) | mortality at 500 ppm (diamondback moth; in Brassica oleracea) | pest or weed control at 500 ppm (two-spotted spider mites; [1]) | mortality at 500 ppm (cotton aphid)

CC(=O)Nc1cc(OC(F)(F)C(F)(F)C(F)(F)C(F)(F)C(F)(F)F)nn1-c1cc([S+]([O-])CC(F)(F)F)c(C)cc1F (stereo not shown) [1-489, 5-acetylamino-1-{2-fluoro-4-methyl-5-(2,2,2-trifluoroethylsulfinyl)phenyl}-3-(1,1,2,2,3,3,4,4,5,5,5-undecafluoropentyloxy)pyrazole]
≥ 90%: mortality at 500 ppm (diamondback moth; [2]) | mortality at 500 ppm (cotton bollworm; [3]) | pest or weed control at 500 ppm (two-spotted spider mites)

Cc1cc(F)c(-n2nc(OC(F)(F)C(F)OC(F)(F)F)cc2CF)cc1SCC(F)(F)F (stereo not shown) [1-1579, 1-{2-fluoro-4-methyl-5-(2,2,2-trifluoroethylthio)phenyl}-5-fluoromethyl-3-{1,1,2-trifluoro-2-(trifluoromethoxy)ethoxy}pyrazole]
≥ 90%: mortality at 500 ppm (brown rice planthopper) | mortality at 500 ppm (diamondback moth; in Brassica oleracea) | pest or weed control at 500 ppm (two-spotted spider mites; [1]) | mortality at 500 ppm (cotton aphid)

CNc1cc(OC(F)(F)C(F)C(F)(F)F)nn1-c1cc(SCC(F)(F)F)c(C)cc1F (stereo not shown) [1-186, 1-{2-fluoro-4-methyl-5-(2,2,2-trifluoroethylthio)phenyl}-3-(1,1,2,3,3,3-hexafluoropropoxy)-5-methylaminopyrazole]
≥ 90%: mortality at 500 ppm (brown rice planthopper) | mortality at 500 ppm (diamondback moth; in Brassica oleracea) | pest or weed control at 500 ppm (two-spotted spider mites; [1]) | mortality at 500 ppm (cotton aphid)

CC(=O)Nc1cc(OCC(F)(F)OC(F)(F)C(F)(F)OC(F)(F)F)nn1-c1cc(SCC(F)(F)F)c(C)cc1F [1-374, 5-acetylamino-3-[2,2-difluoro-2-{2-trifluoromethoxy-(1,1,2,2-tetrafluoroethoxy)}ethoxy]-1-{2-fluoro-4-methyl-5-(2,2,2-trifluoroethylthio)phenyl}pyrazole]
≥ 90%: mortality at 500 ppm (diamondback moth; in Brassica oleracea) | mortality at 500 ppm (cotton bollworm; in Brassica oleracea) | pest or weed control at 500 ppm (two-spotted spider mites; [1])

Cc1cc(F)c(-n2nc(OCC(F)(F)C(F)(F)F)cc2NC(=O)C(F)(F)F)cc1SCC(F)(F)F [1-29, 1-{2-fluoro-4-methyl-5-(2,2,2-trifluoroethylthio)phenyl}-3-(2,2,3,3,3-pentafluoropropoxy)-5-trifluoroacetylaminopyrazole]
≥ 90%: mortality at 500 ppm (brown rice planthopper) | mortality at 500 ppm (diamondback moth; in Brassica oleracea) | pest or weed control at 500 ppm (two-spotted spider mites; [1]) | mortality at 500 ppm (cotton aphid)

Cc1cc(F)c(-n2nc(OC(F)(F)C(F)C(F)(F)F)cc2Cl)cc1SCC(F)(F)F (stereo not shown) [1-253, 5-chloro-1-{2-fluoro-4-methyl-5-(2,2,2-trifluoroethylthio)phenyl}-3-(1,1,2,3,3,3-hexafluoropropoxy)pyrazole]
≥ 90%: mortality at 500 ppm (brown rice planthopper) | pest or weed control at 500 ppm (two-spotted spider mites; [1]) | mortality at 500 ppm (cotton aphid)

C#CCNc1cc(OC(F)(F)C(F)OC(F)(F)C(F)(F)C(F)(F)F)nn1-c1cc([S+]([O-])CC(F)(F)F)c(C)cc1F (stereo not shown) [1-358, 1-{2-fluoro-4-methyl-5-(2,2,2-trifluoroethylsulfinyl)phenyl}-5-(2-propynylamino)-3-{1,1,2-trifluoro-2-(heptafluoropropoxy)ethoxy}pyrazole]
≥ 90%: mortality at 500 ppm (diamondback moth; [2]) | mortality at 500 ppm (cotton bollworm; [3])

Cc1cc(F)c(-n2nc(OCC(F)(F)C(F)(F)F)cc2C#N)cc1SCC(F)(F)F [1-133, 5-cyano-1-{2-fluoro-4-methyl-5-(2,2,2-trifluoroethylthio)phenyl}-3-(2,2,3,3,3-pentafluoropropoxy)pyrazole]
≥ 90%: mortality at 500 ppm (brown rice planthopper) | mortality at 500 ppm (diamondback moth; in Brassica oleracea) | pest or weed control at 500 ppm (two-spotted spider mites; [1]) | mortality at 500 ppm (cotton aphid)

Cc1cc(F)c(-n2nc(OC(F)(F)C(F)OC(F)(F)F)cc2C(F)F)cc1SCC(F)(F)F (stereo not shown) [1-1531, 5-difluoromethyl-1-{2-fluoro-4-methyl-5-(2,2,2-trifluoroethylthio)phenyl}-3-{1,1,2-trifluoro-2-(trifluoromethoxy)ethoxy}pyrazole]
≥ 90%: mortality at 500 ppm (brown rice planthopper) | mortality at 500 ppm (diamondback moth; in Brassica oleracea) | pest or weed control at 500 ppm (two-spotted spider mites; [1]) | mortality at 500 ppm (cotton aphid)

CC(=O)Nc1cc(OC(F)(F)C(F)(F)C(F)(F)C(F)(F)C(F)(F)F)nn1-c1cc(SCC(F)(F)F)c(C)cc1F [1-488, 5-acetylamino-1-{2-fluoro-4-methyl-5-(2,2,2-trifluoroethylthio)phenyl}-3-(1,1,2,2,3,3,4,4,5,5,5-undecafluoropentyloxy)pyrazole]
≥ 90%: mortality at 500 ppm (diamondback moth; [2]) | mortality at 500 ppm (cotton bollworm; [3])

CC(=O)Nc1cc(OC(F)(F)C(F)OC(F)(F)C(F)(F)C(F)(F)F)nn1-c1cc(SCC(F)(F)F)c(C)cc1F (stereo not shown) [1-370, 5-acetylamino-1-{2-fluoro-4-methyl-5-(2,2,2-trifluoroethylthio)phenyl}-3-{1,1,2-trifluoro-2-(heptafluoropropoxy)ethoxy}pyrazole]
≥ 90%: mortality at 500 ppm (diamondback moth; [2]) | mortality at 500 ppm (cotton bollworm; [3]) | pest or weed control at 500 ppm (two-spotted spider mites)
